Tests used:
human brain MAO B = molecular target: T1, human brain MAO B (Homo sapiens, UniProt P27338); experiment: MAO B activity in human brain homogenate (14C-PEA substrate); format: biochemical
T1 construct: Human and rat caudate nuclei were homogenized in 0.32M sucrose; from tissue; host or cells: human caudate nucleus homogenate (1%)
T1 sequence (P27338 1-520): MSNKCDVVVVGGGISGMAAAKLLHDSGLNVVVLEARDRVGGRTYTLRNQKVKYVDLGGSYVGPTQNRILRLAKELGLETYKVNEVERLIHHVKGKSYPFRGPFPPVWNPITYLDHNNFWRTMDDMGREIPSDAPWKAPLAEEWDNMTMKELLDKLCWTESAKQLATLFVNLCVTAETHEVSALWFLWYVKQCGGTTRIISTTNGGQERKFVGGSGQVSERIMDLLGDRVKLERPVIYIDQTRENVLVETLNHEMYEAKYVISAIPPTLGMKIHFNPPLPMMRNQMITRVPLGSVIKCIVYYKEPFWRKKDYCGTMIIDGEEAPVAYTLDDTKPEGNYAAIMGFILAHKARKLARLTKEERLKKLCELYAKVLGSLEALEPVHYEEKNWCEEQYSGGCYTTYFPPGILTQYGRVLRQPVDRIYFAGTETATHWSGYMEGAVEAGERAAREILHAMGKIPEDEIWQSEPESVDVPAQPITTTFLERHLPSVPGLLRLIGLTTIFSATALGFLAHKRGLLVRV

[1] = tested on: PEA induced stereotype behavior; experiment: PEA induced stereotype behavior in rats; format: in vivo, rat
rat brain MAO B = molecular target: T2, rat brain MAO B (Rattus norvegicus, UniProt P19643); experiment: MAO B activity in rat brain homogenate (14C-PEA substrate); format: biochemical
T2 construct: Human and rat caudate nuclei were homogenized in 0.32M sucrose; from tissue; host or cells: rat caudate nucleus homogenate (1%)
T2 sequence (P19643 1-520): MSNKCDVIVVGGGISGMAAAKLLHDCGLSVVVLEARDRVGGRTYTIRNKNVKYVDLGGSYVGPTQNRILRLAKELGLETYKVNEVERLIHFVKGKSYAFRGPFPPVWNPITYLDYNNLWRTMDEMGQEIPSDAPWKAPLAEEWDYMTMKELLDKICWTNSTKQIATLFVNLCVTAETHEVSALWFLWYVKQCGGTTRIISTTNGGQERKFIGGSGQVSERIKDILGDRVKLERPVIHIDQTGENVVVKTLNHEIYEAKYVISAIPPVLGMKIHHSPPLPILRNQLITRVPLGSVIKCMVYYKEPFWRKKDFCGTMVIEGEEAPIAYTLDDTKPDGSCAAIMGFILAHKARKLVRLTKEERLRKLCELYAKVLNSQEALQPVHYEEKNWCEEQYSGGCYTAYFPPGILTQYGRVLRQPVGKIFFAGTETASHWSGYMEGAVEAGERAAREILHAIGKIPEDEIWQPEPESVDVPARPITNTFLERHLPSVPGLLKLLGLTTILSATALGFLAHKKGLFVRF

[2] = tested on: apomorphine and amphetamine induced locomotor changes; experiment: Reversal of apomorphine and amphetamine induced locomotor changes in rats; format: in vivo, rat
Description: Thereafter, an analysis of a PAPD was undertaken in vitro and in vivo beginning with antipsychotic (neuroleptic) and antidepressant activity. […] The two distinct forms of the enzyme have been designated as type A (serotonin metabolizing and clorgyline sensitive) and type […] metabolizing and clorgyline insensitive). Based on the stereochemical model, it was predicted that PAPD's effect on MAO type B would be greater than its effect on MAO type A. In vitro data has substantiated this prediction.

cancer patients = details: cited from earlier work
[3] = tested on: PEA induced rotations in unilateral nigral lesioned rats; experiment: Rotational behavior in unilateral substantia nigra 6-hydroxydopamine lesioned rats; format: in vivo, rat
rat brain MAO A = molecular target: T3, rat brain MAO A (Rattus norvegicus, UniProt P21396); experiment: MAO A activity in rat brain homogenate (14C-5HT substrate); format: biochemical; details: substrate 14C-5HT; SD ±6.0
T3 construct: Human and rat caudate nuclei were homogenized in 0.32M sucrose; from tissue; host or cells: rat caudate nucleus homogenate (1%)
T3 sequence (P21396 1-526): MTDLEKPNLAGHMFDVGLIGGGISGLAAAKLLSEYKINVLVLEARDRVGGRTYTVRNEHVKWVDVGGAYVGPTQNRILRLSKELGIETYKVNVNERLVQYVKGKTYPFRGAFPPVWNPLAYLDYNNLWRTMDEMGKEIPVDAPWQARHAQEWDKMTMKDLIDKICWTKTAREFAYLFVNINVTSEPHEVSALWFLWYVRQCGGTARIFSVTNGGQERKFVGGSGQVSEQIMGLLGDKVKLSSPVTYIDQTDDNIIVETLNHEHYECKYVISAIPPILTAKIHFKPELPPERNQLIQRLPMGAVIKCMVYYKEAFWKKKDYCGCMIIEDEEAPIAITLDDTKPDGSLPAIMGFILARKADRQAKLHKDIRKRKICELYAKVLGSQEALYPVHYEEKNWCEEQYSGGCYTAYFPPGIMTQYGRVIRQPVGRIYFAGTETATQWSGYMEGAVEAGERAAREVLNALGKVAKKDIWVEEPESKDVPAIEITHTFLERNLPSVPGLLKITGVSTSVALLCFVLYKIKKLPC

human platelet MAO B = molecular target: T4, human platelet MAO B (Homo sapiens, UniProt P27338); experiment: Inhibition of platelet MAO B activity in vitro (human platelets); format: biochemical
T4 construct: The platelet pellet was resuspended in 5.0 ml of 0.1 M phosphate buffer with pH 7.4 by sonication; from tissue; host or cells: human blood platelets from normal volunteers, sonicated
T4 sequence (P27338 1-520): T1 sequence (P27338 1-520)

[4] = tested on: rat caudate nucleus (H^3-spiroperidol); experiment: Displacement of H^3-spiroperidol from rat caudate nucleus; format: binding; details: in vitro
human brain MAO A = molecular target: T5, human brain MAO A (Homo sapiens, UniProt P21397); experiment: MAO A activity in human brain homogenate (14C-5HT substrate); format: biochemical; details: substrate 14C-5HT; SD 15.1
T5 construct: Human and rat caudate nuclei were homogenized in 0.32M sucrose; from tissue; host or cells: human caudate nucleus homogenate (1%)
T5 sequence (P21397 1-527): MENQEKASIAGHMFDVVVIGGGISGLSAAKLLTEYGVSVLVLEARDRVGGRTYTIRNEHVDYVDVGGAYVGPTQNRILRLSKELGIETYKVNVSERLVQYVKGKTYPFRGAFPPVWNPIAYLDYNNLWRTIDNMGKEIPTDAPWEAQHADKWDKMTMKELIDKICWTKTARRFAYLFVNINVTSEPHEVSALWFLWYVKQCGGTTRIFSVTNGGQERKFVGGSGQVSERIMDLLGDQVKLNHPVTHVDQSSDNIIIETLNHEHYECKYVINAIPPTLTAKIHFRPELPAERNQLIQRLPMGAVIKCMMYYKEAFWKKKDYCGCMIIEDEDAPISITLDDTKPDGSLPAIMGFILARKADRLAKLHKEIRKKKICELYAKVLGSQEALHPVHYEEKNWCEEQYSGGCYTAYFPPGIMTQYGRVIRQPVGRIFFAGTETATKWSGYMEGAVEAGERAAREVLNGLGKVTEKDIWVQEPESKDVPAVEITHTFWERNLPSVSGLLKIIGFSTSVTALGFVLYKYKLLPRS

[5] = tested on: reserpine-induced akinesia; experiment: PEA reversal of reserpine-induced akinesia in rats; format: in vivo, rat
[6] = PAPD (200 mg/kg by context), 1 h prior to PEA
[7] = clorgyline 5 mg/kg, 1 h prior to PEA
[8] = deprenyl 10 mg/kg, 1 h prior to PEA
[9] = pargyline 50 mg/kg, prior to PEA

For `O=C1CCC(NC(=O)Cc2ccccc2)C(=O)N1` (centres unmarked) [PAPD, 3-N-phenylacetylamino-2,6-piperidinedione], the “selectivity for type B MAO” value (human brain MAO B; human brain tissue) was “five times more selective”, the IC50 (human brain MAO B; substrate 14C-PEA, PAPD SD 3.7) was 19.9 µM and the “duration of stereotype behavior” value ([1]; 4 and 24 hours after PAPD (both groups)) was 30 min. The “animals displaying forepaw padding/sniffing/headweaving” value ([1]; 4 hours after PAPD) was 50%, the “animals displaying forepaw padding/sniffing/headweaving” value ([1]; 24 hours after PAPD) was 66% and the “effect on PEA behavior” value ([1]; PAPD 50 and 100 mg/kg pretreatment) was “no effects on PEA behavior were noticed”. For the same molecule, the “animals with forepaw padding with continuous sniffing as well as headweaving” value ([1]; PAPD 200 and 400 mg/kg) was 100%, the “duration of stereotype behavior” value ([1]; PAPD 200 and 400 mg/kg) was 45 to 50 min and the other stereotype behavior ([1]; PAPD 200 and 400 mg/kg) was “headbobbing”. For the same molecule, the “animals with forepaw padding with continuous sniffing as well as headweaving” value ([1]; PAPD one and two hours prior to PEA) was 100%, the “duration of stereotype behavior” value ([1]; PAPD one hour prior to PEA) was 45 min and the “duration of stereotype behavior” value ([1]; PAPD two hours prior to PEA) was 55 min. The “inhibition of MAO type B versus MAO type A” value (rat brain MAO B; in vitro and in vivo analyses, summary) was “inhibition of MAO type B greater than that for MAO type A”, the “selectivity: concentrations inhibiting MAO B compared with MAO A” value (rat brain MAO B; rat brain) was 10 times less and the IC50 (rat brain MAO B; substrate 14C-PEA, SD ±2.1) was 8 µM. For the same molecule, the “reversal of apomorphine and amphetamine induced locomotor changes” value [2] was “inability to reverse apomorphine and amphetamine induced locomotor changes in rats”, the toxic effects (cancer patients; human, in vivo) was “lack of toxic effects” and the mood (cancer patients; some cancer patients) was “elevation of mood”. For the same molecule, the need for analgesia (cancer patients; some cancer patients) was “diminished need for analgesia”, the “number and duration of PEA rotations” value ([3]; PAPD 200 mg/kg, 1 h before PEA) was “increased the number and duration of PEA rotations” and the “number or duration of PEA rotations” value ([3]; PAPD 50, 100 and 150 mg/kg, 1 h before PEA) was “did not affect the number or duration of PEA rotations”. For the same molecule, the IC50 (rat brain MAO A) was 93.3 µM, the “maximal inhibition of platelet MAO B” value (human platelet MAO B; above 1.0 mM) was 100% and the “inhibition of platelet MAO, relative potency” value (human platelet MAO B; compared with PAPD / pargyline) was “less potent than pargyline”. For the same molecule, the IC50 (human platelet MAO B; platelets from 6 subjects, duplicate assays, SD 34.5×10^-6) was 63.8 µM, the “inhibition with increasing concentration” value (human platelet MAO B; range of 0.1 to 1.0 mM) was “linear inhibition” and the “platelet MAO inhibition” value (human platelet MAO B; standard platelet analysis) was “significant degree of MAO inhibition”. For the same molecule, the “displacement of H^3-spiroperidol” value [4] was “inability to displace H^3 -spiroperidol from rat caudate nucleus”, the IC50 (human brain MAO A) was 139 µM and the “effect on duration of PEA's reversal of akinesia” value ([5]; PAPD 200 mg/kg, 1 h prior to PEA) was “potentiated the duration of PEA's reversal of akinesia”. The “effect on reversal induced by PEA” value ([5]; PAPD 50 and 100 mg/kg, 1 h prior to PEA) was “antagonized the reversal induced by PEA”, the “duration of activity with increased locomotion” value [5, 6] was 50 min and the “latency to reversal of akinesia” value [5, 6] was “less than five minutes”. The serotonin behaviors ([5]; PAPD (200 mg/kg by context), interspersed with locomotor activity) was “headweaving and tremors”.

For `NCCc1ccccc1` [PEA, phenylethylamine], the stereotype behavior ([1]; PEA 50 mg/kg alone) was “no stereotype behavior was observed”, the duration of rotations ([3]; PEA 50 mg/kg alone) was 30 min and the ipsilateral turning ([3]; rat, in vivo) was “induced ipsilateral turning”. The “duration of activity / reversal of akinesia” value ([5]; PEA 50 mg/kg i.p. alone) was 30 min and the “latency to reversal of akinesia” value ([5]; PEA 50 mg/kg i.p. alone, reserpine 10 mg/kg i.p.) was “less than five minutes”.

For `C#CCN(C)CCCOc1ccc(Cl)cc1Cl` [clorgyline, reference compound], the forepaw padding syndrome ([1]; clorgyline 5 mg/kg) was “did not produce this syndrome”, the other stereotype behavior ([1]; clorgyline 5 mg/kg) was “stereotyped headbobbing” and the “animals with forepaw padding, sniffing, headweaving and retropulsion” value ([1]; clorgyline 10 mg/kg, 1 h prior to PEA) was 100%. For the same molecule, the “duration of stereotype behavior” value ([1]; clorgyline, both doses (5 and 10 mg/kg)) was 30 min, the “activity compared with PEA control animals” value [5, 7] was “not as active as PEA control animals” and the duration of behavior [5, 7] was 45 min. For the same molecule, the “latency to reversal of akinesia” value [5, 7] was “less than five minutes” and the serotonin type behavior [5, 7] was “splayed hind legs, myoclonic jerks and headweaving”.

With `C#CCN(C)C(C)Cc1ccccc1` (centres unmarked) [deprenyl, reference compound] the “animals with forepaw padding with continuous sniffing and headweaving” value ([1]; deprenyl 5 mg/kg, 1 h prior to PEA) was 50%, the “animals with forepaw padding with continuous sniffing and headweaving” value [1, 8] was 100% and the “duration of stereotype behavior” value ([1]; deprenyl, 1 h prior to PEA) was 60 min. For the same molecule, the other stereotype behavior ([1]; deprenyl, 1 h prior to PEA) was “no other stereotype behavior observed”, the “duration of PEA rotations” value [3, 8] was “increased the duration of PEA rotations” and the “number of ipsilateral turns induced by PEA” value ([3]; rat, in vivo) was “doubled the number of ipsilateral turns”.

In the case of `C#CCN(C)Cc1ccccc1` [pargyline], the “duration of activity with increased locomotion” value [5, 9] is reported as 45 min and the “latency to reversal of akinesia” value [5, 9] is reported as “less than five minutes”.

With `NNCCc1ccccc1` [phenelzine, reference compound] the “potency relative to PAPD” value (human brain MAO B) was “two orders of magnitude more potent than PAPD”.
